Read-outs that look alike come from different tables or passages of the source. Marks after values point to notes of the source that are not given here.
Tests used:
diabetic rats = details: for HR / LVEDP / LVSP / Neg dp/dt / Pos dp/dt: 4 weeks
Method: Rats were anesthetized with pentobarbital sodium injection (0.8%, 50 mg/kg), subjected to tracheal cannula, heparin anticoagulation, right common carotid artery cannula to left ventricle, communicated with Biopac physiological recorder via pressure transducers to record left ventricular pressure tracing, and the software of Biopac (Acknowledge, Version 3) was used for real-time reacording: heart rate, left ventricular systolic pressure peak (LVSP), maximum rate of change of left intraventricular pressure (±dp/dtmax), left ventricular end diastolic pressure (LVEDP). After 10 min of postoperative stabilization, the above parameters were recorded continuously, and mean values for 30 s were used as the measured values of these parameters.

[1] = tested on: NaCl treated diabetic rats modeled with heart failure; details: 10 weeks; for BNP: blood plasma
Method: Second batch: NaCl treated diabetic rats modeled with heart failure for 20 weeks and normal control rats synchronically and conventionally drinking water were divided into 5 groups: normal control rats synchronically and conventionally drinking water group (Normal Control), model control group (Model Control), the compound A group (ig, 9 mg/kg), the compound A group (ig, 36 mg/kg), administered with drug once per day for consecutive 10 weeks. The pharmacodynamic evaluation on left ventricular function was conducted by using a ventricular chatheterization method.
SPSS statistic software was used to analyze and treat data, and all data were expressed in mean±standard deviation (Mean±SD).

[2] = tested on: IgG cross-linked on red blood cell surface; details: RBC of diabetic rats
Method: In vitro administration: 0.1 mol/L isoosmia PBS (pH7.4) was used as negative control, and it was used as solvent to form drug solutions of the compounds to be tested with different concentrations. Per 900 μl drug solution or solvent control was added with 100 μl RBC, slightly shaken at 37° C. for 16-18 h; centrifuged at 1000 g and 4° C. for 3 min, supernatant was discarded, 0.1 mol/L is PBS (pH7.4) was used to wash plate for 4 times to remove residual compound;
centrifuged at 1000 g and 4° C. for 3 min, a lower layer of RBC was obtained, diluted by 1:100 and used for ELISA assay.
Immunoadsorption assay protocol for IgG content cross-linked on RBC surface: Multiscreen-HA 0.45 μm 96 well microtiter plate (Millipore) was blocked with Superblock (300 μl/well) at 37° C. for 1 h; then dried at a reduced pressure of 5 mmHg, the plate was washed with PBST for 3 time, with 0.1 MPBS (pH7.4) for 3 times, and the plate was shaken for 1 min per time; the RBC to be tested was added (50 μl/well), and PBS background control wells were set (OD0); dried by suction at a reduced pressure; washed with 0.1mol/L PBS (pH7.4) 150 μl for 4 time, the plate was shaken for 1 min per time. After dried by suction at a reduced pressure, 1:500 diluted goat anti-mouse IgG-HRP (50 μl/well) was added, stood at room temperature for 2 h, dried by suction; washed with 0.1 mol/L PBS (pH7.4) 150μl/well for 3 times, the plate was shaken for 1 min per time; dried by suction; o-phenylene diamine (OPD) substrate coloration solution (100 μl/well) was added, stood at room temperature for 30 min under protection from light, the reaction was terminated with 2 mol/L H2SO4 (100 μl/well); the reaction liquid was quickly drawn off (150 μl/well) and transferred to a normal 96 well enzyme labeled plate, and OD values were measured at 490 nm.
Corrected OD=average OD of RBC sample to be tested−average OD of PBS background wells without RBC, the breaking rate of the compounds is expressed as the percentages of OD490 nm decrease: (OD490 nm of PBS wells−OD490 nm of the compound to be tested)/OD490 nm of PBS wells×100%.

[3] = tested on: tail collagen of diabetic rats; details: diabetic model 19.7±7.2
Method: Tail tendon collagen fibrils were taken out under ice-bath, washed with physiological saline, peeled off non-collagen tissues, lyophilized and stored at −70° C. for standby use.
The lyophilized tail collagen was cut into pieces, 2 mg of tail collagen was precisely weighed, added with 10 μg/ml pepsin (solvent: 0.5 mol/L acetic acid) to reach a final concentration of 5 μg pepsin/mg tail collagen, shanken at 4° C. for 2 h, centrifuged at 40000 g for 60 min, after the volume of supernatant was precisely measured, 500 μl of supernatant and total deposition were separately transferred into 5 ml ampules, added with 6 mol/L HCl, sealed, placed in calorstat oven, and hydrolyzed at 110° C. for 24 h.
Measurement of hydroxyproline concentration in the hydrolysis solution: (1) 100 μl of hydrolysis solution was taken from each of ampules, added with about 50 μl 10 mol/L NaOH to pH 6.0, and citric acid buffer solution (50 g citric acid.H2O, 72.36 g anhydrous sodium acetate, 34 g NaOH, 11.52 ml glacial acetic acid were mixed and added with water to 1200 ml, and added with 300 ml n-propanol) 850 μl. […] (4) 10% P-DMAB (1 g p-dimethylaminobenzaldehyde, added with 3.15 mol/L perchloric acid 2.6 ml to dissolve, then diluted with n-propanol to 10 ml, ready to use) 500 μl was added, mixed quickly at 75° C. water-bath for 10 min. […]

Which melting point does the source give for `Cc1csc[n+]1CC(=O)O.[Na+]` [A, 3-carboxymethyl-4-methyl-thiazolium bromide sodium] here?
The melting point was 182 °C.

And the HR (diabetic rats; 9 mg/kg i.g.)?
The HR was 361.80 ± 39.74 beat/min.

What about the LVEDP (diabetic rats; 9 mg/kg i.g.) of the same molecule?
The LVEDP was 5.73 ± 1.44 mmHg.

What about the LVSP (diabetic rats; 9 mg/kg i.g.) of the same molecule?
Its LVSP is 161.54 ± 13.98 mmHg.

And the Neg dp/dt (diabetic rats; 9 mg/kg i.g.)?
The Neg dp/dt was 7762.8 ± 320.2 mmHg/s.

And the Pos dp/dt (diabetic rats; 9 mg/kg i.g.)?
Its Pos dp/dt is 12201.2 ± 1872.2 mmHg/s.

What about the HR (diabetic rats; 18 mg/kg i.g.) of the same molecule?
Its HR is 377.35 ± 17.54 beat/min.

And the LVEDP (diabetic rats; 18 mg/kg i.g.)?
The LVEDP was 6.87 ± 1.26 mmHg.

And the LVSP (diabetic rats; 18 mg/kg i.g.)?
Its LVSP is 170.65 ± 8.94 mmHg.

And the Neg dp/dt (diabetic rats; 18 mg/kg i.g.)?
The Neg dp/dt was 7660.8 ± 1154.8 mmHg/s.

And the Pos dp/dt (diabetic rats; 18 mg/kg i.g.)?
Its Pos dp/dt is 11712.8 ± 1370.9 mmHg/s.

What about the HR (diabetic rats; 36 mg/kg i.g.) of the same molecule?
Its HR is 368.99 ± 31.66 beat/min.

And the LVEDP (diabetic rats; 36 mg/kg i.g.)?
The LVEDP was 6.79 ± 2.47 mmHg.

What about the LVSP (diabetic rats; 36 mg/kg i.g.) of the same molecule?
Its LVSP is 168.25 ± 15.48 mmHg.

And the Neg dp/dt (diabetic rats; 36 mg/kg i.g.)?
The Neg dp/dt was 7675.4 ± 2216.6 mmHg/s.

And the Pos dp/dt (diabetic rats; 36 mg/kg i.g.)?
The Pos dp/dt was 11425.3 ± 1660.0 mmHg/s.

What about the “effect on left ventricular functions” value (diabetic rats; 4 weeks of administration) of the same molecule?
Its value is “significant effect in improving left ventricular functions”.

What about the Heart rate ([1]; 9 mg/kg ig) of the same molecule?
Its Heart rate is 418.3 ± 27.2 Beats/min.

What about the LVEDP ([1]; 9 mg/kg ig) of the same molecule?
Its LVEDP is 11.6 ± 2.9^d mmHg.

What about the LVSP ([1]; 9 mg/kg ig) of the same molecule?
Its LVSP is 187.6 ± 22.3 mmHg.

And the Neg dp/pt ([1]; 9 mg/kg ig)?
Its Neg dp/pt is 10729 ± 2035^d mmHg/s.

What about the Pos dp/pt ([1]; 9 mg/kg ig) of the same molecule?
Its Pos dp/pt is 10729 ± 2035^d mmHg/s.

And the Heart rate ([1]; 36 mg/kg ig)?
Its Heart rate is 406.1 ± 32.9 Beats/min.

And the LVEDP ([1]; 36 mg/kg ig)?
The LVEDP was 13.0 ± 6.1^d mmHg.

And the LVSP ([1]; 36 mg/kg ig)?
The LVSP was 189.2 ± 13.8 mmHg.

And the Neg dp/pt ([1]; 36 mg/kg ig)?
The Neg dp/pt was 10033 ± 2044^d mmHg/s.

And the Pos dp/pt ([1]; 36 mg/kg ig)?
The Pos dp/pt was 10033 ± 2044^d mmHg/s.

And the BNP ([1]; 9 mg/kg ig)?
The BNP was 50.8 ± 5.7 pg/mL.

What about the BNP ([1]; 36 mg/kg ig) of the same molecule?
The BNP was 51.3 ± 8.1 pg/mL.

And the “Breaking rate (OD decrease, %)” value ([2]; 1 μM)?
Its value is 25.6 ± 2.1%.

What about the “Breaking rate (OD decrease, %)” value ([2]; 10 μM) of the same molecule?
Its value is 26.9 ± 3.0%.

What about the “Breaking rate (OD decrease, %)” value ([2]; 30 μM) of the same molecule?
The value was 21.6 ± 5.0%.

And the “Breaking rate (OD decrease, %)” value ([2]; 100 μM)?
Its value is 26.0 ± 2.7%.

And the tail collagen dissolubility ([3]; A 18 mg/kg)?
The tail collagen dissolubility was 33.7±17.8%.

What about the tail collagen dissolubility ([3]; A 36 mg/kg) of the same molecule?
Its tail collagen dissolubility is 37.5±11.1%.

From patent US8338616B2, “Thiazoliums and their use for treating protein aging associated diseases” (Beijing Molecule Science And Technology Co., Ltd., priority 2008, dated 2012)
